Patent publication US11453632B2, “1-phenyl-2-phenylethane derivative” (KAO CORPORATION, priority 2018, dated 2022)

Tests used:
[1] = test system: uterus of ovariectomized rat; experiment: Uterus weight in ovariectomized (OVX) rat; format: in vivo
Method: (§1) 8-week-old female Crl:CD (SD) rats were obtained from Charles River Laboratories Japan, Inc. and individually identified by the ear punching method on the receipt date. Then, an acclimatization period was established for 1 week. The animals were raised in a rearing room under a set environment involving a temperature of 22±3° C., a humidity of 50±20%, air ventilation from 13 to 17 times/hour, and a lighting time from 8:00 to 20:00. During the acclimatization period, the rats were allowed to freely ingest solid feed CRF-1 (Oriental Yeast Co., Ltd.). Since the feeding with CRF-1, the rats were allowed to freely ingest customized feed AIN-93G (Oriental Yeast Co., Ltd.) free from components derived from soybeans.
(§2) On the end date of acclimatization and the following day, the flank cavity was opened under isoflurane anesthesia to harvest the right and left ovaries including fallopian tubes. Other non-OVX rats were subjected to only opening and suture (sham surgery). Immediately thereafter, an antibiotic was subcutaneously administered at a dose of 100 μl/animal. After the surgery, the sham surgery or OVX animals were given customized feed and raised for approximately 1 week.
From 1.5 hours before a shift from the light phase to the dark phase (18:30), a negative solvent (DMSO) or a test substance was subcutaneously administered at a dose of 0.5 ml/kg to the back of the neck according to Table 3 described below using a syringe and an injection needle.
After the completion of all procedures of measurement and analysis, the rats were euthanized by blood letting under isoflurane anesthesia, and the uterus was harvested. Wet weights were measured.
(§3) Skin temperatures differed largely among individuals, and the Smirnov-Grubbs test was conducted in order to exclude outliers beforehand. Results of measuring tail skin temperatures and results of measuring uterus weights were statistically analyzed by testing using the Dunnett's test.

ERβ LBD = target: T1, ERβ LBD (Homo sapiens, UniProt Q92731); experiment: Ability to bind to ERβ: pBIND-ERβ LBD / GAL4 luciferase reporter in HEK293 cells; format: cell-based; set-up: key: RLU = firefly luminescence / Renilla luminescence; details: negative control 0.0118997
T1 construct: host or cells: HEK293
T1 sequence (Q92731 264-498 limits assumed): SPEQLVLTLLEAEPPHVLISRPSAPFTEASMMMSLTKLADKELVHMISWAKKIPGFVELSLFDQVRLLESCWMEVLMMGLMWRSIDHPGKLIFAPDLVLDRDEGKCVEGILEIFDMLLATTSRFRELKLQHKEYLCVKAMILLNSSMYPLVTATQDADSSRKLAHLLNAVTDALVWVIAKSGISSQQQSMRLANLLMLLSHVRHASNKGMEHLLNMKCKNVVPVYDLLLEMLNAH
Method: This evaluation system is a system exploiting difference in the sequence of the ligand binding domain (LBD) between ERα and ERβ (J Endocrinol 163: 379-383 (1999)), and enables selective activation of ERβ to be evaluated by determining the binding of a ligand to LBD and the activation of ER.
A human kidney-derived cell line HEK293 was cultured (37° C., 5% CO2) in Dulbecco's modified Eagle medium (hereinafter, abbreviated to DMEM) containing 10% (v/v) fetal bovine serum (FBS) and penicillin/streptomycin.
2) Measurement of Binding Activity Against ERs
This measurement was carried out according to the method described in JP-B-5990058. Specifically, HEK293 cells were inoculated at a cell density of 4.0×10^4 cells/well to a 96-well plate. After 12 hours therefrom, the medium was replaced with a culture solution (DMEM containing 5% (v/v) charcoal-treated serum). The cells were cotransfected with pBIND-ERα for the expression of ERα LBD or pBIND-ERβ for the expression of ERβ LBD (Promega Corp.) and pGL4.35[luc2P/9XGAL4UAS/Hygro](Promega Corp.) using Lipofectamine 2000 (Invitrogen Corp.) according to the protocol attached to the product. 24 hours after transfection, the medium was replaced with a culture solution containing a test sample, followed by culture for another 24 hours. The activity measurement of firefly luciferase (index for the ligand binding activity of ER) and Renilla reniformis luciferase (index for the transfection efficiency of the plasmids) was carried out using Dual-Glo™ Luciferase Assay System (Promega Corp.) according to the attached protocol. The luminescence intensity of the firefly luciferase was divided by the luminescence intensity of the Renilla reniformis luciferase to calculate a relative light unit (RLU).

ERβ = target: T2, ERβ (Homo sapiens, UniProt Q92731); experiment: Ability to activate transcription mediated by ERβ (pcDNA3-ERβ, pERE luciferase, HEK293 cells); format: cell-based; details: negative control 0.001475
T2 construct: host or cells: HEK293
T2 sequence (Q92731 whole entry): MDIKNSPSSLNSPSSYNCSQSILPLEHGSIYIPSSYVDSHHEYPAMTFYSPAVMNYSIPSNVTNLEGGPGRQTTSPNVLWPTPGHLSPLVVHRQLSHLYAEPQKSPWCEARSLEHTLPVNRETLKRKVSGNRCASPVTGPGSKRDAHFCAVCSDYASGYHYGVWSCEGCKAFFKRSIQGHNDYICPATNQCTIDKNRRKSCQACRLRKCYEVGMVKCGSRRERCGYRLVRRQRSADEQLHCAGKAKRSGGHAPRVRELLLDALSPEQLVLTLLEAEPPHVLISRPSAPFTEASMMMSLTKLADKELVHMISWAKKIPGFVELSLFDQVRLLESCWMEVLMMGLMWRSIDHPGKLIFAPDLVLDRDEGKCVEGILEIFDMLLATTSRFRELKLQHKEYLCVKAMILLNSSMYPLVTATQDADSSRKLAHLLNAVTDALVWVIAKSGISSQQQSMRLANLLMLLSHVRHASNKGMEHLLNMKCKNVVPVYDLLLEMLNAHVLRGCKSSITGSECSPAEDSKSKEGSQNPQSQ
Method: 1) Experimental Method (Measurement of Transcriptional Activity Mediated by ERs)
HEK293 cells were inoculated at a cell density of 4.0×10^4 cells/well to a 96-well plate. After 12 hours therefrom, the medium was replaced with a culture solution (DMEM containing 5% (v/v) charcoal-treated serum). The cells were cotransfected with pcDNA3-ERα or pcDNA3-ERβ (Promega Corp.) and pERE and pRL-CMV (Promega Corp.) using Lipofectamine 2000 (Invitrogen Corp.) according to the protocol attached to the product. 24 hours after transfection, the medium was replaced with a culture medium containing a test sample, followed by culture for another 24 hours. Then, luciferase activity was measured using Dual-Glo™ Luciferase Assay System (Promega Corp.) according to the attached protocol. The luminescence intensity of firefly luciferase (index for the ability to activate transcription mediated by ERE) was divided by the luminescence intensity of Renilla reniformis luciferase (index for the transfection efficiency of the plasmids) to calculate a relative light unit (RLU).

[2] = test system: tail skin temperature of ovariectomized rat; experiment: Tail skin temperature in ovariectomized (OVX) rat; format: in vivo
Method: as §1
1-2) Sham Surgery and Oophorectomy Surgery (OVX)
as §2
1-3) Acclimatization to Skin Temperature Measurement Environment […]
Before administration of a test substance and from 12:00 to 3:00 (dark phase) of 3, 5, 7, 14, and 21 days after the start of administration, the rats were placed in restrainers without anesthesia, and skin temperatures were measured at a site 3 cm on the tip side from the tail root using the infrared radiation thermometer. […]
as §3

melting point: 90 to 91 °C | uterus wet weight (FIG. 6) ([1]; 4 μg/kg/day subcutaneous, vs negative solvent group): no change in uterus weight was confirmed | relative light unit (RLU), ligand binding activity ERβ (ERβ LBD; 0.01 nM): 0.4273 | relative light unit (RLU), ligand binding activity ERβ (ERβ LBD; 0.1 nM): 1.771 | relative light unit (RLU), ligand binding activity ERβ (ERβ LBD; 1 nM): 2.021 | relative light unit (RLU), ligand binding activity ERβ (ERβ LBD; 10 nM): 2.367 | relative light unit (RLU), ligand binding activity ERβ (ERβ LBD; 100 nM): 2.186 | relative light unit (RLU), transcription activation ERβ (ERβ; 0.01 pM): 0.002468 | relative light unit (RLU), transcription activation ERβ (ERβ; 0.1 pM): 0.004255 | relative light unit (RLU), transcription activation ERβ (ERβ; 1 pM): 0.01104 | relative light unit (RLU), transcription activation ERβ (ERβ; 10 pM): 0.03023 | relative light unit (RLU), transcription activation ERβ (ERβ; 100 pM): 0.03238 | relative light unit (RLU), transcription activation ERβ (ERβ; 1000 pM): 0.03342 | relative light unit (RLU), transcription activation ERβ (ERβ; 10000 pM): 0.03507
SMILES: Oc1ccc(CC(C=C(F)F)c2ccc(O)cc2F)c(F)c1 (stereo not drawn) [Compound 17-F, 4,4′-(4,4-difluorobut-3-ene-1,2-diyl)bis(3-fluorophenol)]
uterus wet weight (FIG. 6) ([1]; increased dose of compound 17-F (40, 400 μg/kg/day) subcutaneous): elevated in a concentration-dependent manner | tail skin temperature, raw value and changed temperature from the initial value ([2]; 4, 40, and 400 μg/kg subcutaneous, 3 days after the start of administration, vs negative solvent): confirmed to decrease | tail skin temperature, drug efficacy ([2]; subcutaneous, 5 days after the start of administration): temporarily disappeared | tail skin temperature, raw value and changed temperature ([2]; subcutaneous, 7 days after the start of administration): confirmed to decrease again
